The record followed here is patent US20260285872A1, “COMPOUNDS AND METHODS FOR DEGRADING GSPT1” (priority 2023, published 2026).

pIC50: −log10 of the molar value. Bounds are passed on as bounds.

GSPT1, sequence (P15170 whole entry): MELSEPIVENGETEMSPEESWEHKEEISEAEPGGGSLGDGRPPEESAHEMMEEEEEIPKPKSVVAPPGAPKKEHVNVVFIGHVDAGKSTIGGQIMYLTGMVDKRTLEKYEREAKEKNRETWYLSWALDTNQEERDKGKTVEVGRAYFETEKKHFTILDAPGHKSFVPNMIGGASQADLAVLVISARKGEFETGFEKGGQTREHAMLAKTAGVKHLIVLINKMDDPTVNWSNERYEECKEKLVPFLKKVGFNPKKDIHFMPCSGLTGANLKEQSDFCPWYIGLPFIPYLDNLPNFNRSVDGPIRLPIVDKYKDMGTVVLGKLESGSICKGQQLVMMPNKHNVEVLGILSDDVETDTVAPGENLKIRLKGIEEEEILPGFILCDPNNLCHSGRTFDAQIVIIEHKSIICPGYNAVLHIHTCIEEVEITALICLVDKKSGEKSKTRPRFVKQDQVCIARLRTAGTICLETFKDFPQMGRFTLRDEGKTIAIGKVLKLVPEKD
GSPT1, sequence (Q96SW2 whole entry): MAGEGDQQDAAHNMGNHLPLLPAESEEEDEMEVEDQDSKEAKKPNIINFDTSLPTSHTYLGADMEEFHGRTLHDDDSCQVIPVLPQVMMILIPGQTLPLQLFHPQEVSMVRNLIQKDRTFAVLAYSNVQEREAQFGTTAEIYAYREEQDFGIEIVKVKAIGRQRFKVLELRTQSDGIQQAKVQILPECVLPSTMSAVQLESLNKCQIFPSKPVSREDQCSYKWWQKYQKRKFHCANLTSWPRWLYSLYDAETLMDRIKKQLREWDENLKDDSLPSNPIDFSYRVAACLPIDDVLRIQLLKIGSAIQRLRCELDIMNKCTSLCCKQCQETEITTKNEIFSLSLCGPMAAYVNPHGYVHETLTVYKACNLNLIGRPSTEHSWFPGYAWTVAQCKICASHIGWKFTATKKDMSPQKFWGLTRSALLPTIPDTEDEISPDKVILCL
GSPT1, sequence (Q16531 whole entry partner): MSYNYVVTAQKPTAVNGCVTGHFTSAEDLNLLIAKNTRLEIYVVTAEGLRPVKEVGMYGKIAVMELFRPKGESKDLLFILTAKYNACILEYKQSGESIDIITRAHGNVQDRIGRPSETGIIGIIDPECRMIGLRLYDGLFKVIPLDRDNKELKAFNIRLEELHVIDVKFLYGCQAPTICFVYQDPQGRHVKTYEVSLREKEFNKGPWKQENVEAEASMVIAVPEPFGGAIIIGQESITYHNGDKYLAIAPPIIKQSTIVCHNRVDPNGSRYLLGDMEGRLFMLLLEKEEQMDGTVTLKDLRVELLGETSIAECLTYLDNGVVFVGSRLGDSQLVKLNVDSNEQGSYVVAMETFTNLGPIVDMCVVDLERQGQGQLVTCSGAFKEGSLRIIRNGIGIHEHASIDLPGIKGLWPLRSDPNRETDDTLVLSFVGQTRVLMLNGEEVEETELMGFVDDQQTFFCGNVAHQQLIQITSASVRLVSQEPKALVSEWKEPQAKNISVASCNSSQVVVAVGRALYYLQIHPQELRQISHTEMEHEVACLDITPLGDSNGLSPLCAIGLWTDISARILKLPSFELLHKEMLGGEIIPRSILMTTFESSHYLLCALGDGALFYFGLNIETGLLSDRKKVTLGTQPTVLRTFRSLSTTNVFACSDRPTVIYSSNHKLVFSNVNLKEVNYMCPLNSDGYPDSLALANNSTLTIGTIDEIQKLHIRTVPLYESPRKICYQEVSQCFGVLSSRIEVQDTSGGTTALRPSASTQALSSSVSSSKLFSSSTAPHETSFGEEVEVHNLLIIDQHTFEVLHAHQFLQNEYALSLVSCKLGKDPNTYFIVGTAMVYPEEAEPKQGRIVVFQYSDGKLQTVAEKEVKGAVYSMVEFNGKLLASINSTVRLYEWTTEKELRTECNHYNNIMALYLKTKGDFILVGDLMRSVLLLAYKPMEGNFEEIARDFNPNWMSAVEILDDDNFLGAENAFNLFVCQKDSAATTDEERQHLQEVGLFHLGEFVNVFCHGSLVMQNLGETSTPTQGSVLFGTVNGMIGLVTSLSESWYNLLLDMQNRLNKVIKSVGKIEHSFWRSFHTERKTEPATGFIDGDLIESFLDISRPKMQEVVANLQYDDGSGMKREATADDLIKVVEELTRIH

The first assay relates to NCI-H1155 cells. Nature of the assay: NSCLC cell viability, CellTiter-Glo, NCI-H1155 cells. It is filed as cell-based. The conditions noted are these: Homo sapiens; NCI-H1155 cells, CellTiter-Glo, 72 hours of treatment; read-out: Cell viability classification (NCI-H1155). (In general: In ATP-based viability assays light output follows the ATP content of the culture.)
For `O=C1CCC(N2Cc3cc(C(=O)N4Cc5cc(F)cc(F)c5C4)ccc3C2=O)C(=O)N1` (centres unmarked) [Example 103, 3-(5-(4,6-difluoroisoindoline-2-carbonyl)-1-oxoisoindolin-2-yl)piperidine-2,6-dione], the pIC50 is greater than 8.00. On the same count and under the same terms, under `O=C1CCC(c2nc3ccc(C(=O)N4CCc5ccc(F)cc54)cc3o2)C(=O)N1` (centres unmarked) [Example 107, 3-(6-(6-fluoroindoline-1-carbonyl)benzo[d]oxazol-2-yl)piperidine-2,6-dione] stands 6.00 to 7.00; under `O=C1CCC(N2Cc3cc(C(=O)N4Cc5ccc(F)c(F)c5C4)ccc3C2=O)C(=O)N1` (centres unmarked) [Example 109, 3-(5-(4,5-difluoroisoindoline-2-carbonyl)-1-oxoisoindolin-2-yl)piperidine-2,6-dione], 7.00 to 8.00; under `O=C1CCC(N2Cc3cc(C(=O)N4CC5(C=C(c6ccc(F)c(F)c6)C5)C4)ccc3C2=O)C(=O)N1` (centres unmarked) [Example 234, 3-(5-(6-(3,4-difluorophenyl)-2-azaspiro[3.3]hept-5-ene-2-carbonyl)-1-oxoisoindolin-2-yl)piperidine-2,6-dione], 7.00 to 8.00. In the case of `COc1ccc(C2=CC3(C2)CN(C(=O)c2ccc4c(c2)CN(C2CCC(=O)NC2=O)C4=O)C3)cc1` (centres unmarked) [Example 237, 3-(5-(6-(4-methoxyphenyl)-2-azaspiro[3.3]hept-5-ene-2-carbonyl)-1-oxoisoindolin-2-yl)piperidine-2,6-dione], the pIC50 was less than 6.00. For `N#Cc1ccccc1C1=CC2(C1)CN(C(=O)c1ccc3c(c1)CN(C1CCC(=O)NC1=O)C3=O)C2` (centres unmarked) [Example 238, 2-(2-(2-(2,6-dioxopiperidin-3-yl)-1-oxoisoindoline-5-carbonyl)-2-azaspiro[3.3]hept-5-en-6-yl)benzonitrile], the pIC50 is 6.00 to 7.00. Regarding `N#Cc1ccccc1C1CC2(C1)CN(C(=O)c1ccc3c(c1)CN(C1CCC(=O)NC1=O)C3=O)C2` (centres unmarked) [Example 239, 2-(2-(2-(2,6-dioxopiperidin-3-yl)-1-oxoisoindoline-5-carbonyl)-2-azaspiro[3.3]heptan-6-yl)benzonitrile], the pIC50 is 6.00 to 7.00.

For `N#Cc1ccc(C2=CC3(C2)CN(C(=O)c2ccc4c(c2)CN(C2CCC(=O)NC2=O)C4=O)C3)cc1` (centres unmarked) [Example 242, 4-(2-(2-(2,6-dioxopiperidin-3-yl)-1-oxoisoindoline-5-carbonyl)-2-azaspiro[3.3]hept-5-en-6-yl)benzonitrile], the pIC50 was 7.00 to 8.00. For `O=C1CCC(N2Cc3cc(C(=O)N4CC5(C4)CC(O)(c4ccc(F)cc4)C5)ccc3C2=O)C(=O)N1` (centres unmarked) [Example 243, 3-(5-(6-(4-fluorophenyl)-6-hydroxy-2-azaspiro[3.3]heptane-2-carbonyl)-1-oxoisoindolin-2-yl)piperidine-2,6-dione], the pIC50 was less than 6.00. In the case of `COC1(c2ccc(F)cc2)CC2(CN(C(=O)c3ccc4c(c3)CN(C3CCC(=O)NC3=O)C4=O)C2)C1` (centres unmarked) [Example 244, 3-(5-(6-(4-fluorophenyl)-6-methoxy-2-azaspiro[3.3]heptane-2-carbonyl)-1-oxoisoindolin-2-yl)piperidine-2,6-dione], the pIC50 is 6.00 to 7.00. Same read-out and setting: the figure for `O=C1CCC(N2Cc3cc(C(=O)N4CC5(CC(c6ccc(C(F)(F)F)c(F)c6)C5)C4)ccc3C2=O)C(=O)N1` (centres unmarked) [Example 245, 3-(5-(6-(3-fluoro-4-(trifluoromethyl)phenyl)-2-azaspiro[3.3]heptane-2-carbonyl)-1-oxoisoindolin-2-yl)piperidine-2,6-dione] is 7.00 to 8.00; for `O=C1CCC(N2Cc3cc(C(=O)N4CC5(CC(c6ccc(C(F)(F)F)cc6F)C5)C4)ccc3C2=O)C(=O)N1` (centres unmarked) [Example 246, 3-(5-(6-(2-fluoro-4-(trifluoromethyl)phenyl)-2-azaspiro[3.3]heptane-2-carbonyl)-1-oxoisoindolin-2-yl)piperidine-2,6-dione] it is 7.00 to 8.00; for `O=C1CCC(N2Cc3cc(C(=O)N4CCC5(C=C(c6ccc(F)cc6)C5)C4)ccc3C2=O)C(=O)N1` (centres unmarked) [Example 247, 3-(5-(2-(4-fluorophenyl)-6-azaspiro[3.4]oct-1-ene-6-carbonyl)-1-oxoisoindolin-2-yl)piperidine-2,6-dione] it is 7.00 to 8.00.

Take `O=C1CCC(N2Cc3cc(C(=O)N4CCC5(CC(c6ccc(F)cc6)C5)C4)ccc3C2=O)C(=O)N1` (centres unmarked) [Example 248, 3-(5-(2-(4-fluorophenyl)-6-azaspiro[3.4]octane-6-carbonyl)-1-oxoisoindolin-2-yl)piperidine-2,6-dione]: the pIC50 is 7.00 to 8.00.

`O=C1CCC(N2Cc3cc(C(=O)N4CCC5(C=C(c6cccc(F)c6)C5)C4)ccc3C2=O)C(=O)N1` (centres unmarked) [Example 249, 3-(5-(2-(3-fluorophenyl)-6-azaspiro[3.4]oct-1-ene-6-carbonyl)-1-oxoisoindolin-2-yl)piperidine-2,6-dione]: the pIC50 is 7.00 to 8.00. Still for that read-out and setting: under `O=C1CCC(N2Cc3cc(C(=O)N4CCC5(CC(c6cccc(F)c6)C5)C4)ccc3C2=O)C(=O)N1` (centres unmarked) [Example 250, 3-(5-(2-(3-fluorophenyl)-6-azaspiro[3.4]octane-6-carbonyl)-1-oxoisoindolin-2-yl)piperidine-2,6-dione] stands 6.00 to 7.00. Still for that read-out and setting: under `O=C1CCC(N2Cc3cc(C(=O)N4CC5(CCC(C(F)(F)F)CC5)C4)ccc3C2=O)C(=O)N1` (centres unmarked) [Example 251, 3-(1-oxo-5-(7-(trifluoromethyl)-2-azaspiro[3.5]nonane-2-carbonyl)isoindolin-2-yl)piperidine-2,6-dione] stands 6.00 to 7.00; under `O=C1CCC(c2nc3ccc(C(=O)N4CC5(CCC(C(F)(F)F)C5)C4)cc3o2)C(=O)N1` (centres unmarked) [Example 252, 3-(6-(6-(trifluoromethyl)-2-azaspiro[3.4]octane-2-carbonyl)benzo[d]oxazol-2-yl)piperidine-2,6-dione], less than 6.00. On to `O=C1CCC(c2nc3cc(COC(=O)NC4CC5(C4)CC(F)(F)C5)ccc3o2)C(=O)N1` (centres unmarked) [Example 253, (2-(2,6-dioxopiperidin-3-yl)benzo[d]oxazol-5-yl)methyl (6,6-difluorospiro[3.3]heptan-2-yl)carbamate], for which the pIC50 was less than 6.00. On to `O=C1CCC(N2Cc3cc(C(=O)NC4CC5(C=C(c6ccc(C(F)(F)F)cc6)C5)C4)ccc3C2=O)C(=O)N1` (centres unmarked) [Example 256, 2-(2,6-dioxopiperidin-3-yl)-1-oxo-N-(6-(4-(trifluoromethyl)phenyl)spiro[3.3]hept-5-en-2-yl)isoindoline-5-carboxamide], for which the pIC50 was 6.00 to 7.00. On the same count and under the same terms, under `O=C1CCC(c2nc3ccc(C(=O)N4CC5(CCC(C(F)(F)F)CC5)C4)cc3o2)C(=O)N1` (centres unmarked) [Example 259, 3-(6-(7-(trifluoromethyl)-2-azaspiro[3.5]nonane-2-carbonyl)benzo[d]oxazol-2-yl)piperidine-2,6-dione] stands less than 6.00; under `O=C1CCC(c2nc3cc(COC(=O)NC4CC5(CCC(F)(F)CC5)C4)ccc3o2)C(=O)N1` (centres unmarked) [Example 260, (2-(2,6-dioxopiperidin-3-yl)benzo[d]oxazol-5-yl)methyl (7,7-difluorospiro[3.5]nonan-2-yl)carbamate], 6.00 to 7.00; under `O=C1CCC(c2nc3cc(COC(=O)N4CC5(C4)CC(F)(F)C5)ccc3o2)C(=O)N1` (centres unmarked) [Example 262, (2-(2,6-dioxopiperidin-3-yl)benzo[d]oxazol-5-yl)methyl 6,6-difluoro-2-azaspiro[3.3]heptane-2-carboxylate], less than 6.00.

The next assay concerns the target GSPT1 (Homo sapiens, UniProt P15170+Q96SW2).
Test: not given
The format is cell-based. The note with it: DC50, GSPT1_HiBIT_HEK293 cells, 16 hours, Nano-Glo HiBiT Lytic Detection; read-out: GSPT1 degradation classification. The method, then:
GSPT1_HiBIT_HEK293 cells were culture in DMEM medium with 10% FBS under standard tissue culture conditions. […] GSPT1 level was determined in along with the Nano-Glo HiBiT Lytic Detection system [Promega N3050] with final concentration of 1×. The luminescence was normalized to that of DMSO-treated samples. DC50 values were obtained using three-parameter non-linear regressions using Prism (GraphPad).
In general terms: HiBiT is a short tag that completes a luciferase, so light tracks the accessible tagged protein.
As for `O=C1CCC(c2nc3ccc(C(=O)N4CCc5ccc(F)cc54)cc3o2)C(=O)N1` (centres unmarked) [Example 107, 3-(6-(6-fluoroindoline-1-carbonyl)benzo[d]oxazol-2-yl)piperidine-2,6-dione], the DC50 was 300 to 1000 nM.

The assay is the same for the next values; noted with them: read-out: GSPT1 degradation classification; DC50, GSPT1_HiBIT_HEK293 cells, 16 hours, Nano-Glo HiBiT Lytic Detection.
Turning to `O=C1CCC(N2Cc3cc(C(=O)N4Cc5cc(F)cc(F)c5C4)ccc3C2=O)C(=O)N1` (centres unmarked) [Example 103, 3-(5-(4,6-difluoroisoindoline-2-carbonyl)-1-oxoisoindolin-2-yl)piperidine-2,6-dione], the DC50 was less than 100 nM. As to `O=C1CCC(N2Cc3cc(C(=O)N4Cc5ccc(F)c(F)c5C4)ccc3C2=O)C(=O)N1` (centres unmarked) [Example 109, 3-(5-(4,5-difluoroisoindoline-2-carbonyl)-1-oxoisoindolin-2-yl)piperidine-2,6-dione], the DC50 was less than 100 nM.
